This data set can be described thus: Human HepG2 cell viability assay in 384 well format. It is filed as toxicity, cell-based. On the set-up: dose 125 nL, time 70.5 hour; cytotoxicity at 70.5 h: concentration not given beside the values. Particulars: HepG2 cells, read-out: Inhibition.
As for `COc1ncc(NS(=O)(=O)c2cccc(C)c2)c(OC)n1`, the cytotoxicity at 70.5 h was 21.8%.
With `NC(=O)c1cc2c(nc1Oc1cccc(CN3CCCC3)c1F)CCC2`, the cytotoxicity at 70.5 h is -13.8%.
With `Cc1ccc(C(=O)N2CCOCC2C(N)=O)c(F)c1` (centres undefined) the figure was -8.13%.
For `CC(C)N1CCC2(C=C(C(=O)N(C)C)c3ccccc32)CC1`, the cytotoxicity at 70.5 h was -16.2%.
With `Cc1nc2c(cc1C(=O)O)CCN(CC1CC1)CC2` the figure was -3.49%; with `CCc1nnc(NC(=O)CCN2CC=C(c3cnn(C)c3)CC2)s1`, -7.5%.
With `CCOC(C)c1nccn1Cc1noc(CC)n1` (centres undefined) the figure was 16.7%.
Turning to `F[C@@H]1CN(Cc2ccccc2)C[C@@H]1OCc1nc2cnccc2[nH]1`, the cytotoxicity at 70.5 h turned out to be 13.9%.
`O=C1CCN(C(=O)CCc2ccc(Cl)cc2Cl)CCN1`: the cytotoxicity at 70.5 h is -6.13%.
For `Fc1cnc(N2CCCC3(CN(Cc4ccncc4)CCO3)C2)nc1` (centres undefined), the cytotoxicity at 70.5 h is -6.32%.
The figure for `COCCC1COC2(CCN(C(=O)c3cccn3C)CC2)C1` (centres undefined) is -14.7%; for `COCCC(=O)N1CCCC1c1nccc(C)n1` (centres undefined) it is -12.1%; for `Cc1nc(C(=O)N2CCN(C(=O)N(C)C)[C@@H]3CS(=O)(=O)C[C@@H]32)cs1` it is -5.31%.
With `Cc1nc(CCNc2ccc(-c3nc(C)c(C)c(=O)[nH]3)cn2)cs1` the figure was -1.37%; with `COc1ccc(-c2cc(CN)ccc2F)c(OC)c1OC`, 6.26%; with `O=C(c1cscn1)N1CCCCC1c1nc2cc(F)ccc2[nH]1` (centres undefined), -1.08%.
On to `O=C1CC2(CCN(Cc3ccc(Cl)s3)C2)C(=O)N1` (centres undefined), for which the cytotoxicity at 70.5 h was -9.8%.
With `Cc1nncn1CCNC(=O)C(C)(C)c1cccc(F)c1` the figure was -7.47%; with `O=C(O)c1ccc(CCNC(=O)C2(c3ccccc3)CC2)cc1`, 12.5%; with `NC(=O)C(Cc1ccccc1)NS(=O)(=O)Cc1ccccc1F` (centres undefined), -15%.
`Cc1ccc([C@]2(O)CC[C@H]3CN(Cc4cc(C)c(O)c(C)c4)C[C@H]32)nc1`: the cytotoxicity at 70.5 h came out at 30.6%.
For `Cc1cc(F)ccc1CN1CCC(O)(CN2CCCCC2)C1` (centres undefined), the cytotoxicity at 70.5 h is -1.38%.
With `O=C(CN1CCCCC1Cn1cncn1)NCCc1ccc(F)cc1` (centres undefined) the figure was 32.1%; with `CC(C)CC(=O)N(C)CC(=O)Nc1ccc(Br)cn1`, 0.489%; with `CC1(C)OC(=O)N(CCCC(=O)c2ccc(F)cc2)C1=O`, -16.8%.
The figure for `Cc1cc(=O)[nH]c(=O)n1COCCOCc1ccccc1` is 25.1%; for `COCC(=O)N1Cc2ccnn2CC(COCCN(C)C)C1` (centres undefined) it is -3.25%; for `Cc1ccc(CN2CCn3c(COc4cccnc4)cnc3C2C)o1` (centres undefined) it is -7.88%.
The figure for `CN(CCc1ccccn1)C(=O)c1cnn(-c2ccccc2F)c1N` is 7.25%.
On to `CCCS(=O)(=O)N1CCC2(CC1)CC(=O)N(CCCc1ccccc1)C2`, for which the cytotoxicity at 70.5 h was determined as 23.4%.
On to `CC(C)c1nc(C2CCCN2C(=O)CCn2cncn2)no1` (centres undefined), for which the cytotoxicity at 70.5 h is -7.37%.
The figure for `COc1cccc2c1ccn2CCC(=O)N1CCCC(C(=O)O)C1` (centres undefined) is 18.7%; for `O=C(NC1CCCC1)c1cnn2c(-c3ccco3)ccnc12` it is -8.37%.
In the case of `O=C(Cc1ccc(S(=O)(=O)C(F)F)cc1)N1CCCC1`, the cytotoxicity at 70.5 h was -5.59%.
With `c1ccc(CN2CCOC3(CCCN(c4nccs4)C3)C2)cc1` (centres undefined), the cytotoxicity at 70.5 h is -7.62%.
The figure for `CSCCNC(=O)c1coc(COc2ccc(F)cc2)n1` is 7.74%; for `Cc1csc(N2CCN(C(=O)C3(C#N)CCCCC3)CC2)n1` it is -9.16%; for `COC(C)C(=O)N(CC(N)=O)Cc1cccc(Oc2ccccc2)c1` (centres undefined) it is -2.39%.
For `Cc1nn(CCC#N)c(C)c1CCC(=O)N(C(C)C)C1CC1`, the cytotoxicity at 70.5 h was -10.9%.
The figure for `COCCN(C)CC1CCCN1S(=O)(=O)c1cc(C)oc1C` (centres undefined) is -4.11%.
The figure for `O=C(CCCOc1ccc(F)cc1)N1CCCC(n2cccn2)C1` (centres undefined) is 0.781%.
The figure for `Cc1ccc(C)c(NS(=O)(=O)c2cc3c(c(C(=O)O)c2)OCCO3)c1` is -8.38%; for `COCCc1noc(C2CCCN(c3ncnc4c3CCC4)C2)n1` (centres undefined) it is -13.9%; for `CCn1cnnc1C1CCN(C(=O)c2cc(OC)ccc2OC)CC1` it is 1%.
As to `COc1ccc([C@@H]2CN(Cc3ccncc3)C[C@H]2c2cc[nH]n2)cc1`, the cytotoxicity at 70.5 h was -7.91%.
The figure for `COc1cc(C)cc(C(C(=O)O)N(C)Cc2ccncc2C)c1OC` (centres undefined) is 4.18%; for `O=C(CN1CCN(CCO)CC1)NCc1ccc(Cl)s1` it is -1.03%.
The figure for `COc1ccc(CN2CCC3(CC2)C(C(=O)O)CC(=O)N3C)cc1Cl` (centres undefined) is -3.23%.
The figure for `O=C(c1ccc(-n2ccnc2)cc1)N1CCCC1` is 34.6%; for `CN(Cc1cccnc1)CC1CCOc2ccccc2C1` (centres undefined) it is -5.68%.
As to `O=C(CC1CC1)N[C@@H]1CN(C(=O)c2cccs2)C[C@@H]2CCCO[C@@H]21`, the cytotoxicity at 70.5 h is -7.28%.
The figure for `CC(C)(C)C(=O)N1CC(=O)N(Cc2ccco2)CC(O)C1` (centres undefined) is -4.89%.
With `CCOCC(=O)NCCc1ccc(I)s1` the figure was 18.6%; with `Cc1ccc([C@@H]2CN(S(=O)(=O)N(C)C)C[C@H]2N(C)C)cc1`, -5.83%; with `CC(O)Cc1cn(CC2CCN(c3nccc4occc34)CC2)nn1` (centres undefined), 4.74%.
The figure for `Cn1ncc2c1C(COCC1CC1)CN(CC1CC1)C2` (centres undefined) is -6.33%.
For the compound `CCCn1ncc(C(=O)NC2CCN(C3CCOCC3)CC2)c1C`, the cytotoxicity at 70.5 h is -2.11%.
With `CCOCC(=O)Nc1ccc(-n2ccc(C(N)=O)n2)cc1` the figure was -5.89%; with `Cc1nn(C)c(C)c1CCNC(C)c1ccc(-n2ccnc2C)cc1` (centres undefined), -2.24%.
The figure for `Cc1cc(C)n(-c2cc(N3CCN(C(=O)C(C)(C)C)CC3)nc(C)n2)n1` is 2.21%.
The figure for `CS(=O)(=O)CCOCCNc1ccc(C#N)cc1F` is -7.64%; for `O=C(O)c1ccccc1-n1cc(CN2CCC(c3cc[nH]n3)C2)cn1` (centres undefined) it is -2.77%; for `Cn1cc(C(=O)N2CCSc3ccccc32)ccc1=O` it is 3.72%.
Regarding `Cc1c(Br)cccc1C(=O)NCC1CCNCC1`, the cytotoxicity at 70.5 h came to 8.92%.
With `Cc1noc(C)c1CN1C[C@H](OCC2CCN(C)CC2)[C@H]2COC[C@H]21` the figure was 30.4%.
As to `CCNC(=O)c1cc(OC)c2cc(F)cc(C)c2n1`, the cytotoxicity at 70.5 h was -12.9%.
Turning to `COc1ccc(CN2CCOC[C@H](OCc3ccccc3)C2)cc1`, the cytotoxicity at 70.5 h is -8.76%.
`CCOC[C@H]1CC[C@H]2[C@H](CCN2S(=O)(=O)Cc2ccccc2)O1`: the cytotoxicity at 70.5 h is -1.8%.
The figure for `COCCn1cc(NC(=O)C(C)CCc2ccccc2F)ccc1=O` (centres undefined) is -11.1%; for `CC(C)Nc1cccc(C(=O)NCC(O)c2cccc(F)c2)c1` (centres undefined) it is -6.04%.
With `O=C(CCNS(=O)(=O)c1ccc(Cl)cc1)NCc1ccoc1`, the cytotoxicity at 70.5 h was -5.84%.
With `OCCC1(NCc2ccc(-n3cccn3)cc2)CCOCC1` the figure was -2.65%.
In the case of `CCN(CC)c1nc2ccsc2c(=O)n1CCC(=O)NC1CCCC1`, the cytotoxicity at 70.5 h was -6.51%.
As to `Cc1cnn(CC2CN(CC(=O)N(C)Cc3ccsc3)CCO2)c1` (centres undefined), the cytotoxicity at 70.5 h was determined as 5.76%.
Consider `NC(=O)Cn1cc(NC(=O)N2CCN(c3ccccc3)CC2)cn1`, for which the cytotoxicity at 70.5 h is -12.6%.
With `CC(C)[C@H](N)C(=O)N1CCCC(C2=Nc3ccccc3S(=O)(=O)N2)C1` (some centres undefined) the figure was -9.78%; with `Cc1cc(C)c2ncn(CCOCCO)c(=O)c2c1`, -5.3%.
As for `Cc1ccsc1CN(CCN(C)C)C(=O)c1ccc(C#N)nc1`, the cytotoxicity at 70.5 h was -8.67%.
The figure for `O=C1CC[C@H]2CN(C3CCOCC3)CC[C@H]2N1CCC1=CCCCC1` is 2.84%; for `CCN1CC(C(=O)NCCn2cccc2)CCC1=O` (centres undefined) it is -7.13%; for `CS(=O)(=O)N1CCN(c2ccnc(N3CCCCC3)n2)CC1` it is -6.15%.
With `O=C(N[C@@H]1CNCCC[C@H]1O)c1ccc(OCc2ccccc2)cc1`, the cytotoxicity at 70.5 h is -2.25%.
With `CCN1CCN(C(=O)C(C)N2CCN(Cc3nccn3C)CC2)CC1` (centres undefined) the figure was 0.843%; with `COCC(=O)N1CC(c2ccnc(Nc3ccc(C)cn3)n2)C1`, -10.9%; with `Cc1cc(N2CCCN(C(=O)CSCC3CC3)CC2)ccn1`, -17.7%.
In the case of `CCC1c2ccsc2CCN1C(=O)NCCNc1ncccn1` (centres undefined), the cytotoxicity at 70.5 h was determined as 0.287%.
With `CCN1CCN(c2ccc(F)cc2C(C)NCc2ccnn2C)CC1` (centres undefined) the figure was -1.9%.
The figure for `Cn1cc(C(=O)Nc2cccc(CCN3CCCC3)c2)ccc1=O` is -5.46%; for `Cc1cc(C)n(-c2ccc(C(=O)N3CCCC3c3cnn(C)c3)cc2)n1` (centres undefined) it is -5.54%.
With `Cc1n[nH]c2c1C(c1ccc(F)cc1)SCC(=O)N2` (centres undefined) the figure was -4.92%; with `O=S(=O)(c1cccs1)N1CC[C@H](O)[C@@H]1Cc1ccncc1`, -1.15%; with `Cc1ccc(CNC(=O)COc2ccc3c(c2)OCC3O)cc1` (centres undefined), -7.79%.
As for `CC(C)c1noc(C[S+]([O-])CC(=O)Nc2cc(F)ccc2F)n1` (centres undefined), the cytotoxicity at 70.5 h is -3.52%.
`O=C(c1ccoc1)N1CCOC2(COCCN(c3ncccn3)C2)C1` (centres undefined): the cytotoxicity at 70.5 h is -7.67%.
With `Cc1cccc2cc(CN3CCC(N4CCOCC4)CC3)c(=O)[nH]c12` the figure was -5.31%; with `COCCCNC(=O)C1CCN(CC2(O)CCC(C)CC2)CC1` (centres undefined), -3.99%.
The figure for `CCCn1cc(C(=O)NCCC(=O)NC2CCCCC2)c(C)n1` is -4.38%; for `CC(C)Oc1ncccc1CNC(=O)c1cc(C2CC2)on1` it is 16%.
As to `COc1ccc2c(c1)NC(C1CCN(C(=O)C3CC3)CC1)NS2(=O)=O` (centres undefined), the cytotoxicity at 70.5 h is -4.62%.

For the origin of these results see ChEMBL document CHEMBL3507680, “University of Dundee, Gates Library screen for HepG2 cell viability”.
